Results on 21 compounds are retold here after patent US20130096104A1, “IMIDAZOPYRIDINE COMPOUNDS, COMPOSITIONS AND METHODS OF USE” (GENENTECH, INC., priority 2010, published 2013).

The target of this assay is T1, TYK2 kinase domain (Homo sapiens, UniProt P29597).
T1 construct: The activity of the isolated JAK1, JAK2 or TYK2 kinase domain was measured
T1 sequence (P29597 897-1176 limits assumed): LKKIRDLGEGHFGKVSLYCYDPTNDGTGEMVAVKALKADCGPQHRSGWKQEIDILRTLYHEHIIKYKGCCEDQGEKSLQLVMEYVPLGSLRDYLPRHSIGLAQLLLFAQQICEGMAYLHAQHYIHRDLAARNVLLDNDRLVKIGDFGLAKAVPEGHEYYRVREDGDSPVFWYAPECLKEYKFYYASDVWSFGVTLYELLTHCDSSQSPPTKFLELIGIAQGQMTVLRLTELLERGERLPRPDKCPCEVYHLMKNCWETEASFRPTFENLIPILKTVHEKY
Description: TYK2 inhibition assay (Example A, Caliper LabChip peptide phosphorylation). The format is biochemical. As to conditions: isolated kinase domain, 1 nM TYK2, 25 uM ATP, Morrison tight binding model. As to the method:
The activity of the isolated JAK1, JAK2 or TYK2 kinase domain was measured by monitoring phosphorylation of a peptide derived from JAK3 ([…] fluorescently labeled on the N-terminus with 5-carboxyfluorescein using the Caliper LabChip technology (Caliper Life Sciences, Hopkinton, Mass.). […] Reactions were incubated at 22° C. in 384-well polypropylene microtiter plates for 30 minutes and then stopped by addition of 25 uL of an EDTA containing solution (100 mM Hepes pH 7.2, 0.015% Brij-35, 150 mM EDTA), resulting in a final EDTA concentration of 50 mM. After termination of the kinase reaction, the proportion of phosphorylated product was determined as a fraction of total peptide substrate using the Caliper LabChip 3000 according to the manufacturer's specifications. Ki values were then determined using the Morrison tight binding model. Morrison, J. F., Biochim. Biophys. Acta. 185:269-296 (1969); William, J. W. and Morrison, J. F., Meth. Enzymol., 63:437-467 (1979).

For the compound `Clc1cccc(Cl)c1-c1nc2c(Nc3ccccn3)nccc2[nH]1` [Example 1, 2-(2,6-dichlorophenyl)-N-(pyridin-2-yl)-1H-imidazo[4,5-e]pyridin-4-amine], the Ki (as a rule, a dissociation constant, usually derived from enzyme kinetics or from competition with a known ligand) is 1.7 nM. In other words, the single-digit nanomolar range.

For the compound `Clc1cccc(Cl)c1-c1nc2ccnc(Nc3cn[nH]c3)c2[nH]1` [Example 3, 2-(2,6-dichlorophenyl)-N-(1H-pyrazol-4-yl)-3H-imidazo[4,5-e]-pyridin-4-amine], the Ki was determined as 14.5 nM.

`Clc1cccc(Cl)c1-c1nc2ccnc(Nc3cc(N4CCOCC4)ncn3)c2[nH]1` [Example 5, 2-(2,6-dichlorophenyl)-N-(6-morpholinopyrimidin-4-yl)-3H-imidazo[4,5-e]pyridin-4-amine] displayed a Ki of 0.6 nM.

For the compound `Fc1cccc(Cl)c1-c1nc2ccnc(Nc3cnccn3)c2[nH]1` [Example 6, 2-(2-chloro-6-fluorophenyl)-N-(pyrazin-2-yl)-3H-imidazo[4,5-e]-pyridin-4-amine], affinity was put at a Ki of 3.1 nM.

Consider `O=C(Nc1nccc2nc(-c3c(Cl)cccc3Cl)[nH]c12)c1cncs1` [Example 7, N-(2-(2,6-dichlorophenyl)-3H-imidazo[4,5-c]pyridin-4-yl) thiazole-5-carboxamide], for which affinity was put at a Ki of 7.8 nM.

As for `N#Cc1cc(Cl)c(-c2nc3ccnc(NC(=O)C4CC4)c3[nH]2)c(Cl)c1` [Example 10, N-(2-(2,6-dichloro-4-cyanophenyl)-3H-imidazo[4,5-c]pyridin-4-yl)cyclopropanecarboxamide], the Ki is 2.5 nM.

With `CNC(=O)Nc1nccc2nc(-c3c(Cl)cccc3Cl)[nH]c12` [Example 11, 1-(2-(2,6-dichlorophenyl)-3H-imidazo[4,5-e]pyridin-4-yl)-3-methylurea], the Ki was found to be 4.9 nM.

Turning to `Cn1c(-c2c(Cl)cccc2Cl)nc2c(NC(=O)C3CC3)nccc21` [Example 12, N-(2-(2,6-dichlorophenyl)-1-methyl-1H-imidazo[4,5-c]pyridine-4-yl)cyclopropanecarboxamide], the affinity, expressed as Ki, was 13.3 nM.

On to `Cn1c(-c2c(Cl)cccc2Cl)nc2ccnc(NC(=O)C3CC3)c21` [Example 13, N-(2-(2,6-dichlorophenyl)-3-methyl-3H-imidazo[4,5-c]pyridine-4-yl)cyclopropanecarboxamide], for which the Ki amounted to 19.5 nM.

Turning to `Clc1cccc(Cl)c1-c1nc2c(Nc3ccncn3)ncnc2[nH]1` [Example 14, 8-(2,6-dichlorophenyl)-N-(pyrimidin-4-yl)-9H-purin-6-amine], the affinity, expressed as Ki, was 2.8 nM. Against the preceding compound, the Ki is about 7-fold lower.

Regarding `O=C(Nc1ncnc2nc(-c3c(Cl)cccc3Cl)[nH]c12)C1CC1` [Example 15, N-(8-(2,6-dichlorophenyl)-7H-purin-6-yl)cyclopropanecarboxamide], the Ki worked out at 8.1 nM. This Ki is about 2.9-fold higher than that of the compound before.

In turn, `Cc1cc(Nc2ncc(F)c3[nH]c(-c4c(Cl)cccc4Cl)nc23)nc(C)n1` [Example 16, 2-(2,6-dichlorophenyl)-N-(2,6-dimethylpyrimidin-4-yl)-7-fluoro-1H-imidazo[4,5-c]pyridin-4-amine] showed a Ki of 2.3 nM.

`Cc1nc(Nc2ncnc3nc(-c4c(Cl)cccc4Cl)[nH]c23)cc(N2CCN(CCO)CC2)n1` [Example 167, 2-(4-{6-[8-(2,6-Dichloro-phenyl)-7H-purin-6-ylamino]-2-methyl-pyrimidin-4-yl}-piperazin-1-yl)-ethanol] came in with a Ki of 7.2 nM.

`CNC(=O)Nc1ncnc2nc(-c3c(Cl)cccc3Cl)[nH]c12` [Example 171, 1-(8-(2,6-dichlorophenyl)-7H-purin-6-yl)-3-methylurea] gave a Ki of 27.2 nM.

On to `Cc1ccc(Nc2ncnc3nc(-c4c(Cl)cccc4Cl)[nH]c23)nc1` [Example 179, 8-(2,6-dichlorophenyl)-N-(5-methylpyridin-2-yl)-7H-purin-6-amine], for which affinity was put at a Ki of 1.5 nM.

As for `N#Cc1cc(Cl)c(-c2nc3ncnc(Nc4ccc(N5CCOCC5)cn4)c3[nH]2)c(Cl)c1` [Example 197, 3,5-dichloro-4-(6-(5-morpholinopyridin-2-ylamino)-7H-purin-8-yl)benzonitrile], affinity was put at a Ki of 1.4 nM. This Ki and that of the compound before are within 1.5-fold of each other.

Consider `COC(=O)Nc1ncnc2nc(-c3c(F)cccc3Cl)[nH]c12` [Example 208, methyl 8-(2-chloro-6-fluorophenyl)-7H-purin-6-ylcarbamate], for which the inhibitory constant (Ki) was determined as 56 nM. Compared with the last compound, the Ki is about 40-fold higher.

`O=C(Nc1ncnc2nc(-c3c(F)cccc3Cl)[nH]c12)C1CC1` [Example 210, N-(8-(2-chloro-6-fluorophenyl)-7H-purin-6-yl)cyclopropanecarboxamide]: the Ki was 27.8 nM.

`Cn1c(-c2c(Cl)cccc2Cl)nc2c(Nc3ccncc3)ncnc21` [Example 215, 8-(2,6-dichlorophenyl)-9-methyl-N-(pyridin-4-yl)-9H-purin-6-amine] gave a Ki of 56.5 nM.

Compound `O=C(Nc1ncnc2c1nc(-c1c(Cl)cccc1Cl)n2CCO)C1CC1` [Example 439, Cyclopropanecarboxylic acid [8-(2,6-dichloro-phenyl)-9-(2-hydroxy-ethyl)-9H-purin-6-yl]-amide] registered a Ki of 835 nM. This Ki lies about 15-fold higher than the previous one.

Take `O=C(Nc1ncc(Cl)c2[nH]c(-c3c(Cl)cccc3Cl)nc12)C1CC1` [Example 447, Cyclopropanecarboxylic acid [7-chloro-2-(2,6-dichloro-phenyl)-1H-imidazo[4,5-c]pyridin-4-yl]-amide]: the Ki worked out at 0.8 nM.
